Results: publication PMC11923649, “Novel C-2 Aromatic Heterocycle-Substituted Triterpenoids Inhibit Hedgehog Signaling in GLI1 Overexpression Cancer Cells” (ACS Omega, 2025)

Experiments:
[1] = system: Gli1 protein in DU-145 cells; assay: Western blot of Gli1 in DU-145 cells, 24 h; assay type: cell-based, human; conditions: DU-145, 24 h, immunoblot
Method: In order to verify that compounds 11a and 11b inhibit the proliferation of A549 and DU-145 through Hh inhibition, we monitored the expression of Hh target genes in these cell lines (Figure 2). […] The decreased protein expression of Gli1 targets Cyclin D1, N-Myc, and Bcl-2 strongly indicates inhibition of its transcriptional activity, and their downregulation correlates with the data obtained by the U-87 MG-Gli-FLuc reporter assay. Importantly, these proteins are involved in cell cycle progression, proliferation, and survival. N-Myc amplification or deregulation of transcription, stability, and degradation is associated with many malignancies,[34] and the observed downregulation induced by 11a and 11b may reduce its oncogenic effect.
Figure 2 Effect of compounds 11a and 11b on the protein expression of the Gli1 transcription factor and its transcriptional targets in A549 (A) and DU145 (B) cells following 24 h of incubation. […]
Cells were washed with PBS and lysed on ice in 200 μL of RIPA (Radioimmunoprecipitation Assay) buffer for 30 min. Then, cell lysates were clarified by centrifugation (15000 rpm, 20 min, 4 °C), and the protein concentration in the collected supernatants was determined using a BCA method (Bicinchoninic Acid test). […] Luminescence signal detection was performed by using an Odyssey FC instrument (LI-COR Biosciences).

[2] = system: U-87 MG-Gli-FLuc cells; assay: MTS viability assay run in parallel with U-87 MG-Gli-FLuc reporter assay; assay type: cell-based, human; conditions: up to a dose of 6.25 μmol/L, 24 h
Method: A possible direct inhibition of the reporter (Fluc) and luminescence itself, which could lead to false positive results, was also ruled out in a cellular as well as a noncellular model (data not shown).
Figure 1 Effect of compounds 11a, 11b, and positive control GANT-61 on Gli1 activation and cell viability measured using the U-87 MG-Gli-FLuc reporter assay. Data are expressed as percentages of control (100%) and represent the mean of three independent experiments with the standard deviation. To distinguish specific inhibition of Gli activation from a nonspecific cellular response, an MTS assay was performed simultaneously under the same conditions in 96-well transparent plates. Statistical analysis of Gli1 activity was performed using one-sample Student’s t-test (mu = 100): *, p < 0.05; **, p < 0.01. The same analysis was used to assess cytotoxicity by MTS assay: #, p < 0.05; ##, p < 0.01.
The U-87 MG-Gli-FLuc reporter cell line was developed from the human glioblastoma line U-87 MG obtained from ATCC and cultured in EMEM medium supplemented with 10% FBS, 1 mmol/L sodium pyruvate, and a 1 mmol/L nonessential amino acid mixture. […] Panels were placed on a shaker to achieve complete cell lysis, and luminescence was measured after 3 min using an EnVision plate reader.

| SMILES | Endogenous Gli1 protein level [1] | Inhibition of proliferation or cell death induction (MTS) under reporter conditions [2] |
| --- | --- | --- |
| C=C(C)[C@@H]1CC[C@]2(C(=O)O)CC[C@]3(C)C(CCC4[C@@]5(C)C=C(c6ccco6)C(=O)C(C)(C)C5CC[C@]43C)C12 (stereo partly shown) [Compound 11a, 2-(Furan-2-yl)-3-oxolupa-1,20(29)-dien-28-oic acid] | inhibit the endogenous Gli1 protein level in a dose-dependent manner | not accompanied by inhibition of proliferation or cell death induction |
| C=C(C)[C@@H]1CC[C@]2(C(=O)O)CC[C@]3(C)C(CCC4[C@@]5(C)C=C(c6ccoc6)C(=O)C(C)(C)C5CC[C@]43C)C12 (stereo partly shown) [Compound 11b, 2-(Furan-3-yl)-3-oxolupa-1,20(29)-dien-28-oic acid] | inhibit the endogenous Gli1 protein level in a dose-dependent manner | not accompanied by inhibition of proliferation or cell death induction |
